Reference: patent US20120121540A1 (priority 2007, published 2012)

assay: HCV replicon assay (luciferase reporter, ET cell line); format: cell-based; conditions: Hepatitis C virus, HCV replicon luciferase activity in ET cells
Procedure, shortened: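 EC50 and, via WST-1 cytotoxicity, TC50 were fitted with a Hill-coefficient equation to % inhibition across 10 two-fold dilutions. Compounds at 0.1 nM-[…] with 0.5% DMSO were applied 24 h post-seeding to replicon-bearing ET cells (luc-ubi-neo/NS3-5B, adaptive mutations). Firefly luciferase signal was measured after 48-72 h.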

| SMILES | inhibition at 10 µM |
| --- | --- |
| O=C(NCc1cccs1)c1nc2c(C(F)(F)F)cc(-c3ccccc3)cn2c1Cl [Compound 177, 3-Chloro-6-phenyl-8-trifluoromethyl-imidazo[1,2-a]pyridine-2-carboxylic acid (thiophen-2-ylmethyl)-amide] | 93.2% |
| COC(=O)Cc1c(C(=O)NCc2cccs2)nc2c(C(F)(F)F)cc(-c3ccoc3)cn12 [Compound 222, {6-Furan-3-yl-2-[(thiophen-2-ylmethyl)-carbamoyl]-8-trifluoromethyl-imidazo[1,2-a]pyridin-3-yl}-acetic Acid Methyl Ester] | 66.1% |
| O=C(c1nc2c(C(F)(F)F)cc(-c3ccoc3)cn2c1Cl)N1CCC(c2cccc(F)c2)C1 (stereo not shown) [Compound 334, (3-Chloro-6-furan-3-yl-8-trifluoromethyl-imidazo[1,2-a]pyridin-2-yl)-[3-(3-fluoro-phenyl)-pyrrolidin-1-yl]-methanone] | 96.1% |
| O=C(c1nc2c(C(F)(F)F)cc(-c3cn[nH]c3)cn2c1Cl)N1CCC(c2ccc(F)cc2)C1 (stereo not shown) [Compound 238, [3-Chloro-6-(1H-pyrazol-4-yl)-8-trifluoromethyl-imidazo[1,2-a]pyridin-2-yl]-[3-(4-fluoro-phenyl)-pyrrolidin-1-yl]-methanone] | 86.9% |
| O=C(c1nc2c(C(F)(F)F)cc(-c3ccoc3)cn2c1Cl)N1CCN(c2ccncc2)CC1 [Compound 533, (3-Chloro-6-furan-3-yl-8-trifluoromethyl-imidazo[1,2-a]pyridine-2-yl)-[4-pyridin-4-yl-piperazin-1-yl]-methanone] | 23.4% |
| O=C(NCc1cccs1)c1nc2c(C(F)(F)F)cc(-c3ccccc3)nc2[nH]1 [Compound 103, 5-Phenyl-7-trifluoromethyl-3H-imidazo[4,5-b]pyridine-2-carboxylic acid (thiophen-2-ylmethyl)-amide] | 54.7% |
| O=C(c1cn2cc(-c3cn[nH]c3)cc(C(F)(F)F)c2n1)N1CCC(c2ccccc2F)C1 (stereo not shown) [Compound 377, [3-(2-Fluoro-phenyl)-pyrrolidin-1-yl]-[6-(1H-pyrazol-4-yl)-8-trifluoromethyl-imidazo[1,2-a]pyridin-2-yl]-methanone] | 94.2% |
| O=C(c1nc2c(C(F)(F)F)cc(-c3ccoc3)cn2c1Cl)N1CCN(c2ccccc2F)CC1 [Compound 529, (3-Chloro-6-furan-3-yl-8-trifluoromethyl-imidazo[1,2-a]pyridine-2-yl)-[4-(2-fluoro-phenyl)-piperazin-1-yl]-methanone] | 78.9% |
| O=C(NCCc1ccc(F)cc1)c1nc2c(C(F)(F)F)cc(-c3ccoc3)cn2c1Cl [Compound 407, 3-Chloro-6-furan-3-yl-8-trifluoromethyl-imidazo[1,2-a]-pyridine-2-carboxylic acid [2-(4-fluoro-phenyl)-ethyl]-amide] | 88% |
| O=C(c1nc2c(C(F)(F)F)cc(-c3ccoc3)cn2c1Cl)N1CC(NS(=O)(=O)C2CC2)C1 [Compound 498, Cyclopropanesulfonic Acid[1-(3-chloro-6-furan-3-yl-8-trifluoromethyl-imidazo[1,2-a]pyridine-2-carbonyl)-azetidin-3-yl]-amide] | 95% |
| O=C(c1nc2c(C(F)(F)F)cc(-c3ccoc3)cn2c1Cl)N1CCCCC1c1cccc(F)c1 (stereo not shown) [Compound 545, (3-Chloro-6-furan-3-yl-8-trifluoromethyl-imidazo[1,2-a]pyridin-2-yl)-[2-(3-fluoro-phenyl)-piperidin-1-yl)-methanone] | 70.2% |
| O=C(c1nc2c(C(F)(F)F)cc(-c3ccoc3)cn2c1Cl)N1CCC(c2ccccc2)C1 (stereo not shown) [Compound 260, (3-Chloro-6-furan-3-yl-8-trifluoromethyl-imidazo[1,2-a]pyridin-2-yl)-(3-phenyl-pyrrolidin-1-yl)-methanone] | 96% |
| O=C(c1nc2c(C(F)(F)F)cc(-c3cccc(F)c3)cn2c1Br)N1CCC(c2ccccc2)C1 (stereo not shown) [Compound 368, [3-Bromo-6-(3-fluoro-phenyl)-8-trifluoromethyl-imidazo[1,2-a]pyridin-2-yl]-(3-phenyl-pyrrolidin-1-yl)-methanone] | 92.2% |
| N#Cc1ccccc1C1=CCN(C(=O)c2nc3c(C(F)(F)F)cc(-c4ccoc4)cn3c2Cl)CC1 [Compound 563, 2-[1-(3-Chloro-6-furan-3-yl-8-trifluoromethyl-imidazo[1,2-a]pyridine-2-carbonyl)-1,2,3,6-tetrahydro-pyridin-4-yl]-benzonitrile] | 97.4% |
| CC(=O)c1ccc(C2=CCN(C(=O)c3nc4c(C(F)(F)F)cc(-c5ccoc5)cn4c3Cl)CC2)s1 [Compound 585, 1-{5-[1-(3-Chloro-6-furan-3-yl-8-trifluoromethyl-imidazo[1,2-a]pyridine-2-carbonyl)-1,2,3,6-tetrahydro-pyridin-4-yl]-thiophen-2-yl}-ethanone] | 93.2% |
| O=C(c1nc2c(C(F)(F)F)cc(-c3ccoc3)cn2c1Cl)N1CCC1c1ccccc1 (stereo not shown) [Compound 487, (3-Chloro-6-furan-3-yl-8-trifluoromethyl-imidazo[1,2-a]pyridin-2-yl)-(2-phenyl-azetidin-1-yl)-methanone] | 94.2% |

| SMILES | inhibition at 10 µM |
| --- | --- |
| O=C(c1nc2c(C(F)(F)F)cc(-c3ccco3)cn2c1Cl)N1Cc2cccnc2C1 [Compound 217, (3-Chloro-6-furan-2-yl-8-trifluoromethyl-imidazo[1,2-a]pyridin-2-yl)-(5,7-dihydro-pyrrolo[3,4-b]pyridin-6-yl)-methanone] | 38.8% |
| COC(=O)[C@H]1[C@@H](c2ccccc2)CCN1C(=O)c1nc2c(C(F)(F)F)cc(-c3ccoc3)cn2c1Cl (stereo in doubt) [Compound 227, 1-(3-Chloro-6-furan-3-yl-8-trifluoromethyl-imidazO [1,2-a]pyridine-2-carbonyl)-3-phenyl-pyrrolidine-2-carboxylic Acid Methyl Ester] | 49.2% |
| O=C(c1nc2c(C(F)(F)F)cc(-c3ccco3)cn2c1Cl)N1CCN(c2ccccc2)CC1 [Compound 323, (3-Chloro-6-furan-2-yl-8-trifluoromethyl-imidazo[1,2-a]pyridin-2-yl)-(4-phenyl-piperazin-1-yl)-methanone] | 54.6% |
| N#Cc1cc(C(F)(F)F)c2nc(C(=O)NCc3cccs3)c(Cl)n2c1 [Compound 309, 3-Chloro-6-cyano-8-trifluoromethyl-imidazo[1,2-a]pyridine-2-carboxylic Acid (thiophen-2-ylmethyl)-amide] | 1.8% |
| O=C(c1nc2c(C(F)(F)F)cc(-c3ccoc3)cn2c1Cl)N1CCN(c2ccc(F)cc2)CC1 [Compound 530, (3-Chloro-6-furan-3-yl-8-trifluoromethyl-imidazo[1,2-a]pyridine-2-yl)-[4-(4-fluoro-phenyl)-piperazin-1-yl]-methanone] | 80.3% |
| Cn1cc(C2=CCN(C(=O)c3nc4c(C(F)(F)F)cc(-c5ccoc5)cn4c3Cl)CC2)cn1 [Compound 578, (3-Chloro-6-furan-3-yl-8-trifluoromethyl-imidazo[1,2-a]pyridin-2-yl)-[4-(1-methyl-1H-pyrazol-4-yl)-3,6-dihydro-2H-pyridin-1-yl)-methanone] | 97.2% |
| O=C(c1nc2c(C(F)(F)F)cc(-c3ccoc3)cn2c1Cl)N1CC=C(c2ccc(F)cc2)C1 [Compound 427, (3-Chloro-6-furan-3-yl-8-trifluoromethyl-imidazo[1,2-a]pyridin-2-yl)-[3-(4-fluoro-phenyl)-2,5-dihydro-pyrrol-1-yl]-methanone] | 99.1% |
| O=C(NCc1cccs1)c1nc2c(C(F)(F)F)cc(-c3ccccc3)nn2c1Cl [Compound 249, 3-Chloro-6-phenyl-8-trifluoromethyl-imidazo[1,2-b]pyridazine-2-carboxylic Acid(thiophen-2-ylmethyl)-amide] | 81.4% |
| O=C(NCc1cccs1)c1nn2c(Br)cc(-c3ccccc3)cc2c1Cl [Compound 112, 7-Bromo-3-chloro-5-phenyl-pyrazolo[1,5-a]pyridine-2-carboxylic Acid (thiophen-2-ylmethyl)-amide] | 74.2% |
| O=C(Cc1cn2cc(-c3ccoc3)cc(C(F)(F)F)c2n1)NCc1cccs1 [Compound 650, 2-[6-(furan-3-yl)-8-(trifluoromethyl)imidazo[1,2-a]pyridin-2-yl]-N-(thiophen-2-ylmethyl)acetamide] | 65.7% |
| CN(C)c1cc(-c2ccccc2)cc2cc(C(=O)NCc3cccs3)nn12 [Compound 150, 7-dimethylamino-5-phenyl-pyrazolo[1,5-a]pyridine-2-carboxylic Acid (thiophen-2-ylmethyl)-amide] | 43.5% |
| O=C(NCc1ccco1)c1nc2c(C(F)(F)F)cc(-c3ccco3)cn2c1Cl [Compound 158, 3-Chloro-6-furan-2-yl-8-trifluoromethyl-imidazo[1,2-a]pyridine-2-carboxylic acid (furan-2-ylmethyl)-amide] | 88.5% |
| O=C(c1nc2c(C(F)(F)F)cc(-c3ccoc3)cn2c1Cl)N1CCC(c2ccncc2)C1 (stereo not shown) [Compound 454, (3-Chloro-6-furan-3-yl-8-trifluoromethyl-imidazo[1,2-a]pyridin-2-yl)-(3-pyridin-4-yl-pyrrolidin-1-yl)-methanone] | 96.1% |
| O=C(c1nc2c(C(F)(F)F)cc(-c3ccoc3)cn2c1Cl)N1CC=C(c2cccs2)CC1 [Compound 613, (3-Chloro-6-furan-3-yl-8-trifluoromethyl-imidazo[1,2-a]pyridin-2-yl)-(4-thiophen-2-yl-3,6-dihydro-2H-pyridin-1-yl)-methanone] | 99.4% |
| O=C(Cc1nc2c(C(F)(F)F)cc(-c3ccoc3)cn2c1Cl)N1CCC(c2cccc(F)c2)C1 (stereo not shown) [Compound 604, 2-[3-chloro-6-(furan-3-yl)-8-(trifluoromethyl)imidazo [1,2-a]pyridin-2-yl]-1-[3-(3-fluorophenyl)pyrrolidin-1-yl]ethanone] | 74.1% |
